“Also recorded” adds a separate entry of the source.
Key:
Assay type in all cases: cell-based, mouse
BV2 cells [1] = test: In vitro phagocytosis assay of pH-dependent fluorescent particles; details: for Phagocytosis of pH-sensitive fluorescent beads by BV2 cells: WT BV2, time-lapse microscopy 24 hours, sialidase 400 nM 1 hour, 3Fax-Neu5Ac 32 uM; for Phagocytosis of pH-dependent fluorescent particles by BV2 cells: wild-type BV2, no serum or young serum prior to feeding, monitored over 24 hours
Protocol: (§1) For in vitro phagocytosis assays, cells were split into a 24-well plate 8-24 hours prior to serum treatment at a density of 50,000 cells/well. Following specific treatments, wells were washed twice with PBS and fed pHrodo-labeled 3 μm amino-coated polystyrene particles (Polysciences) at a ratio of 10 particles per cell or crude myelin, isolated as previously described^47, at 1 mg/mL. pHrodo labeling was carried out as previously described to minimize background fluorescence^37. 4 phase and red fluorescent images per well were acquired every hour for 24 hours using the Incucyte S3 live cell analysis system (Essen Bioscience). For each time point, normalized phagocytosis was calculated using the following formula: red object area/phase confluence. To combine data from independent experiments, phagocytosis was calculated relative to control by setting phagocytosis at zero hours in the no serum control cell condition to 0, and this value at 24 hours to 1. Technical triplicates for each experiment were averaged, and the average of three independent experiments was reported.
For sialidase treatment, cells were incubated with 400 nM Vibrio cholerae sialidase for 1 hour at 37° C. in serum-free DMEM following serum treatment and prior to feeding. 3Fax-Neu5Ac (R&D) was used as previously described^33. The inhibitor was used at a concentration of 32 μM serially diluted in DMSO and used at a final concentration of 0.1% DMSO in DMEM. 3Fax-Neu5Ac was added with serum treatments for 48 hours prior to phagocytosis assays, and replaced in the feeding medium.
Cells were split into a 24-well plate 24 hours prior to feeding at a density of 50,000 cells/well in serum free medium. Following specific treatments, wells were washed twice with PBS and fed pHrodo-labeled 3 micron amino-coated polystyrene particles (Polysciences) at a ratio of 10 particles per cell. pHrodo labeling was carried out as previously described to minimize background fluorescence^37. 4 phase and red fluorescent images per well were acquired every hour for 24 hours using the Incucyte S3 live cell analysis system (Essen Bioscience). For each time point, normalized phagocytosis was calculated using the following formula: red object area/phase confluence. To combine data from independent experiments, phagocytosis relative to control was calculated by setting phagocytosis at zero hours in the control condition to 0, and this value at 24 hours to 1. Technical triplicates for each experiment were averaged, and the average of three independent experiments was identified.
Cells were incubated with 400 nM Vibrio cholerae sialidase for 1 hour at 37° C. in serum-free DMEM prior to phagocytosis. 3Fax-Neu5Ac (R&D) was used as previously described^58. The inhibitor was used at a concentration of 32 uM serially diluted in DMSO and used at a final concentration of 0.1% DMSO in DMEM. 3Fax-Neu5Ac was added with serum treatments for 48 hours prior to phagocytosis assays, and replaced in the feeding medium.

peritoneal macrophages = test: Peritoneal macrophage phagocytosis of pH-dependent fluorescent latex particles; details: aged (20-month-old) compared to young (2-month-old) macrophages; sialidase
Protocol: as §1
For sialidase treatment, cells were incubated with 400 nM Vibrio cholerae sialidase for 1 hour at 37° C. in serum-free DMEM following serum treatment and prior to feeding. 3Fax-Neu5Ac (R&D) was used as previously described^33. […]

BV2 cells [2] = test: Lectin (SNA, MAA) staining of cell-surface sialic acid by flow cytometry; details: WT BV2 cells pretreated with sialidase
Excerpt: Antibodies to CD11b (clone M1/70, BioLegend) and CD45 (clone 30-F11, Biolegend) were used for microglia identification (CD11b+CD45lo). For primary microglia immunophenotyping, the following lectins and antibodies were used: biotinylated Sambucus nigra agglutinin (SNA, Vector Labs), biotinylated Maackia amurensis agglutinins (MAA-1 and MAA-2, Vector), biotinylated Erythrina cristagalli lectin (ECL, EY Labs), biotinylated wheat germ agglutinin (WGA, Vector), recombinant mouse Siglec-E (R&D), recombinant mouse Siglec-F (R&D), antibodies to mouse Siglec-1 (clone REA197, Miltenyi Biotec), CD22 (clone OX-97, Biolegend), Siglec-E (clone M1304A01, Biolegend), Siglec-F (clone ES22-10D8, Miltenyi Biotec), Siglec-G (clone SH1, BD Biosciences), Siglec-H (clone 551, Biolegend), CD33 (clone 9A11, eBioscience), Galectin-3 (clone M3/38, Biolegend). For immunostaining, cells were passed through a 100 μm strainer, blocked for 10 minutes on ice with mouse Fc-blocking reagent (BD), and stained for 30 minutes on ice in DPBS containing calcium and magnesium supplemented with 1% bovine serum albumin. […] Data was analyzed using FlowJo software (TreeStar).
Antibodies to CD11b (clone M1/70, BioLegend) and CD45 (clone 30-F11, Biolegend) were used for microglia identification (CD11b+CD45lo). […] Data was analyzed using FlowJo software (TreeStar).

primary microglia = test: Ex vivo microglial phagocytosis assay
Protocol: Whole brain myelin-depleted single-cell suspensions were prepared as described above. Next, a rough estimation of microglia counts from each brain was determined by strictly gating a volume-designated aliquot of the suspensions by forward scatter/side scatter on a flow cytometer (BD Accuri C6). Each suspension was adjusted to contain equal numbers of microglia per unit volume. Then, single cell brain suspensions were treated with sialidase, a CD22 blocking antibody (R&D), or no treatment for 1 hour at 37° C. with periodic agitation. Treatments were washed out and cells were resuspended in FACS buffer containing pHrodo- or CypHer5E-conjugated particles at a ratio of 50 particles per microglia. The cell-particle mixture was incubated for 1-2 hours at 37° C. with periodic agitation. Phagocytosis was stopped by transferring the suspensions to ice, where the cells were stained with antibodies to distinguish microglia. Microglial phagocytosis was assessed by flow cytometry by pre-gating live CD11b+CD45lo cells and assessing pH dependent particle fluorescence within this population. The eating gate was determined using an unfed control, and confirmed by sorting an aliquot of the sample into noneating and eating populations by FACS followed by microscopic assessment.
Whole brain myelin-depleted single-cell suspensions were prepared as described above. Next, a rough estimation of microglia counts from each brain was determined by strictly gating a volume-designated aliquot of the suspensions by forward scatter/side scatter on a flow cytometer (BD Accuri C6). Each suspension was adjusted to contain equal microglia per unit volume. Then, single cell brain suspensions were treated accordingly for 1 hour in serum free DMEM-F12 at 37° C. with periodic agitation. Treatments were washed out and cells were resuspended in FACS buffer containing pHrodo- or CypHer5E-conjugated particles at a ratio of 50 particles per microglia. The cell-particle mixture was incubated for 1-2 hours at 37° C. with periodic agitation. Phagocytosis was stopped by transferring the suspensions to ice, where the cells were stained with antibodies to distinguish microglia. Microglial phagocytosis was assessed by flow cytometry by pre-gating live CD11b+CD45lo cells and assessing pH-dependent particle fluorescence within this population. The eating gate was determined using an unfed control, and confirmed by sorting an aliquot of the sample into non-eating and eating populations by FACS followed by microscopic assessment.

## COC(=O)C1(OC(C)=O)OC([C@H](OC(C)=O)[C@@H](COC(C)=O)OC(C)=O)C(NC(C)=O)C(OC(C)=O)C1F (stereo partly drawn) [3Fax-Neu5Ac, reference compound]
BV2 cells [1]
  Phagocytosis of pH-sensitive fluorescent beads by BV2 cells: promotes phagocytosis in BV2 cells
  Phagocytosis of pH-dependent fluorescent particles by BV2 cells: promoted phagocytosis in the no serum condition only

## sialidase: Sialidase from Vibrio cholerae expressed in Escherichia coli C600; removes cell-surface sialic acid
Peritoneal macrophages
  Phagocytosis by peritoneal macrophages: increased phagocytosis dramatically in aged macrophages
BV2 cells [1]; CD22 KO BV2 + sialidase
  Phagocytosis of pH-sensitive fluorescent beads by CD22 KO BV2 cells: completely abrogated in the absence of CD22
BV2 cells [1]
  Phagocytosis of pH-sensitive fluorescent beads by BV2 cells: promotes phagocytosis in BV2 cells
  Phagocytosis of pH-dependent fluorescent particles by BV2 cells: promote phagocytosis in the absence of young serum
BV2 cells [2]
  SNA and MAA ligand expression on the cell surface: reduce sialic acid ligands on the cell surface
Primary microglia; aged (18 m.o.) CD22−/−
  Ex vivo phagocytosis by microglia from aged CD22−/− mice: had no effect in CD22−/− microglia
Primary microglia; aged WT mice, 1 hour pretreatment, flow cytometry
  Ex vivo phagocytosis of latex particles by aged microglia: rescued phagocytosis in aged microglia; also recorded: promoted phagocytosis in WT microglia
Primary microglia; relative to age-matched wild-type control microglia
  Ex vivo phagocytosis by microglia from 12-month-old CD22−/− mice: reduced pro-phagocytic response to sialidase
Primary microglia; young (2-month-old) mice
  Ex vivo phagocytosis of latex particles by young microglia: did not enhance phagocytosis in already competent young microglia

## C=C1[C@@H](C)[C@H]2[C@H](Cc3ccccc3)NC(=O)[C@]23[C@H](OC(C)=O)/C=C/[C@@](C)(O)C(=O)[C@@H](C)C/C=C/[C@H]3[C@@H]1O [cytochalasin D, reference compound]
BV2 cells [1]; 1 hour of feeding, used to define eating gate
  Engulfment of pH-dependent beads by BV2 cells (flow cytometry): actin polymerization is blocked preventing engulfment

From patent US11891442B2, “Compositions and methods for treating age-related diseases” (priority 2017, dated 2024)
